Source: patent publication US11993582B2, “Crystalline forms of a LTA4H inhibitor” (Novartis AG, priority 2018, dated 2024)
In brackets after ≈: the same amount, converted by molar mass.

Assays:
Format in all cases: physicochemical
[1] = Hygroscopicity by DVS
Excerpt: Crystalline form HB is a hydrated form of (S)-3-amino-4-(5-(4-((5-chloro-3-fluoropyridin-2-yl)oxy)phenyl)-2H-tetrazol-2-yl)butanoic acid.

[2] = Stability in solvent: equilibration of Form HB with solvent, residue analysed by XRPD
Experimental: Equilibrations with solvent were carried out to investigate the relative stability of form HB in solvent. 50 mg of Form HB is equilibrated with 1 mL solvent for 24 h (or 7 days, or 28 days) in a water bath at 25° C. or for 7 days at 50° C. The solutions are filtered and dried for 10 minutes in air. The resulting solid is analyzed by XRPD.
Various solvent were investigated: acetone, acetonitrile, dichloromethane, dioxane, ethanol, heptane, methanol, THF, acetone/water mixtures from 10/90 to 90/10, acetonitrile/water mixtures from 10/90 to 90/10, dioxane/water mixtures from 10/90 to 90/10 and ethanol/water mixture from 10/90 to 90/10, tetrahydrofuran/water (50/50) and 1-propanol/water (70/30).

[3] = Solid state stability in bulk (HPLC degradation products, XRPD); details: test conditions 1-5: 1 week, tight or open container, room temperature to 80° C., up to 92% RH; listed as Modification HB
Experimental: The chemical and physical stability of form B and form HB was investigated, exposing the individual forms to high humidity at temperatures ranging from 25-80° C.
The degradation products were analyzed by HPLC and the sample was analyzed by XPRD to detect any changes to the solid state.

[4] = Physical stability: behavior under compression (XRPD); details: 5 minutes at 10 tons, hydraulic press, 13 mm tablets
Experimental: Behavior under compression: The physical stability of crystalline Form HB was also evaluated. 300 mf of the crystalline form HB was compressed for 5 minutes at 10 tons with a hydraulic press (diameter of the tablets 13 mm). The sample was then characterized by XRPD to detect any change in the solid state.

[5] = Physical stability: behavior under grinding (XRPD); details: ground manually in a mortar for 3 minutes
Experimental: Behavior under grinding: The physical stability of crystalline form Form HB was also evaluated. 50 mg of the crystalline form B or HB were ground manually in a mortar for 3 minutes.

[6] = Physical stability: granulation simulation experiment (XRPD and/or DSC); details: ethanol or water as granulation solvent, 25° C.
Experimental: Behavior under granulation simulation experiment: The physical stability of crystalline forms HB was also evaluated in granulation simulation experiments. In these experiments granulating solvent was added dropwise to the crystalline form HB until the solid is wetted sufficiently. The mixture was then vortexed between each addition at 25° C. The mixture was then dried under vacuum. The crystallinity of the material (post-grinding) was re-evaluated by XRPD and/or DSC. The granulating solvent was water or ethanol.

[7] = Solubility in aqueous buffers and bio-relevant media
[8] = Stability in solvent: equilibration of Form HB with solvent, residue analysed by XRPD; remark: listed apart in the source

Question: Which results are given for `N[C@@H](CC(=O)O)Cn1nnc(-c2ccc(Oc3ncc(Cl)cc3F)cc2)n1` [Form HB, (S)-3-amino-4-(5-(4-((5-chloro-3-fluoropyridin-2-yl)oxy)phenyl)-2H-tetrazol-2-yl)butanoic acid]?
Answer: Rehydration ([1]; at 10% RH and above 60% RH): Stepwise rehydration to HB; Behaviour at low humidity ([1]; below 10% RH): loses their water; Hygroscopicity ([1]; between 10-90% RH): not hygroscopic; Solid form after equilibration with solvent ([2]; 25° C., 7 days or 28 days, a variety of solvent): no change; Solid form after equilibration with solvent ([2]; 25° C., 7 days or 28 days, acetone, dioxane, ethanol, methanol and THF): converts to amorphous material or gel like material; Solid state residue ([2]; 50° C., 7 days, 1,4-Dioxane): Amorphous; Solid state residue ([2]; 50° C., 7 days, 1-Butanol): Amorphous; Solid state residue ([2]; 50° C., 7 days, Acetone): Amorphous; Solid state residue ([2]; 50° C., 7 days, Acetone/water 50/50): Form HB; Solid state residue ([2]; 50° C., 7 days, Acetone/water 90/10): Form HB; Solid state residue ([2]; 50° C., 7 days, Acetonitrile): Amorphous; Solid state residue ([2]; 50° C., 7 days, Anisole): Amorphous; Solid state residue ([2]; 50° C., 7 days, DMSO): Amorphous; Solid state residue ([2]; 50° C., 7 days, DMSO/methanol 50/50): Amorphous; Solid state residue ([2]; 50° C., 7 days, DMSO/water 50/50): Form HB; Solid state residue ([2]; 50° C., 7 days, DMSO/water 90/10): Amorphous; Solid state residue ([2]; 50° C., 7 days, Dichloromethane): Amorphous; Solid state residue ([2]; 50° C., 7 days, Ethanol): Amorphous; Solid state residue ([2]; 50° C., 7 days, Ethyl acetate): Amorphous; Solid state residue ([2]; 50° C., 7 days, Isopropanol): Amorphous; Solid state residue ([2]; 50° C., 7 days, Isopropyl acetate): Amorphous; Solid state residue ([2]; 50° C., 7 days, MEK): Amorphous; Solid state residue ([2]; 50° C., 7 days, MIBK): Amorphous; Solid state residue ([2]; 50° C., 7 days, MTBE): Amorphous; Solid state residue ([2]; 50° C., 7 days, Methanol): transformed into Form B; Solid state residue ([2]; 50° C., 7 days, NMP): Amorphous; Solid state residue ([2]; 50° C., 7 days, THF): Amorphous; Solid state residue ([2]; 50° C., 7 days, THF/acetone 50/50): Amorphous; Solid state residue ([2]; 50° C., 7 days, THF/methanol 50/50): Amorphous; Solid state residue ([2]; 50° C., 7 days, THF/water 50/50): Form HB; Solid state residue ([2]; 50° C., 7 days, Toluene): Amorphous; Solid state residue ([2]; 50° C., 7 days, Water): Form HB; Solid form after equilibration with solvent ([2]; 50° C., 7 days, many solvents): became amorphous; Solid state residue ([2]; 50° C., 7 days, n-Heptane): mixture HB + B; Chemical and physical stability in bulk [3]: stable in all conditions except at 80 °C without humidity; Change of crystalline form by XRPD under compression [4]: No change of crystalline form; Change by XRPD under grinding [5]: did not result in any change; Form change by XRPD upon granulation [6]: no form change; solubility ([7]; FaSSIF (pH=6.5)): 90 µg/mL (≈ 229 µM); solubility ([7]; FeSSIF (pH=5.8)): 9 µg/mL (≈ 22.9 µM); solubility ([7]; simulated gastric fluid (SGF of pH=2)): 750 µg/mL (≈ 1910 µM); Form conversion through slurry ([8]; high temperature slurry at 80° C. in aqueous solvent mixtures): Modification B can be obtained; Form conversion through slurry ([8]; hot or boiling methanol, about 50° C. to about 65° C.): transforms into anhydrous Modification B
